By CC50 is commonly meant the concentration that lowers cell viability or growth by half. As usually defined, the IC50 is the midpoint of a concentration-inhibition curve. One may read the EC50 as the midpoint of the concentration-response curve. Usually AC50 stands for the concentration giving half of the maximal activity seen.

Assay [1] is described as follows: A Cell Based Secondary Assay To Explore Cytotoxicity of Compounds that Sensitize Mycobacterium Tuberculosis to Beta-Lactam Antibiotics. The format is functional.
Another assay has as its target T1, Insulin-degrading enzyme (Homo sapiens, UniProt P14735).
T1 sequence (P14735 whole entry): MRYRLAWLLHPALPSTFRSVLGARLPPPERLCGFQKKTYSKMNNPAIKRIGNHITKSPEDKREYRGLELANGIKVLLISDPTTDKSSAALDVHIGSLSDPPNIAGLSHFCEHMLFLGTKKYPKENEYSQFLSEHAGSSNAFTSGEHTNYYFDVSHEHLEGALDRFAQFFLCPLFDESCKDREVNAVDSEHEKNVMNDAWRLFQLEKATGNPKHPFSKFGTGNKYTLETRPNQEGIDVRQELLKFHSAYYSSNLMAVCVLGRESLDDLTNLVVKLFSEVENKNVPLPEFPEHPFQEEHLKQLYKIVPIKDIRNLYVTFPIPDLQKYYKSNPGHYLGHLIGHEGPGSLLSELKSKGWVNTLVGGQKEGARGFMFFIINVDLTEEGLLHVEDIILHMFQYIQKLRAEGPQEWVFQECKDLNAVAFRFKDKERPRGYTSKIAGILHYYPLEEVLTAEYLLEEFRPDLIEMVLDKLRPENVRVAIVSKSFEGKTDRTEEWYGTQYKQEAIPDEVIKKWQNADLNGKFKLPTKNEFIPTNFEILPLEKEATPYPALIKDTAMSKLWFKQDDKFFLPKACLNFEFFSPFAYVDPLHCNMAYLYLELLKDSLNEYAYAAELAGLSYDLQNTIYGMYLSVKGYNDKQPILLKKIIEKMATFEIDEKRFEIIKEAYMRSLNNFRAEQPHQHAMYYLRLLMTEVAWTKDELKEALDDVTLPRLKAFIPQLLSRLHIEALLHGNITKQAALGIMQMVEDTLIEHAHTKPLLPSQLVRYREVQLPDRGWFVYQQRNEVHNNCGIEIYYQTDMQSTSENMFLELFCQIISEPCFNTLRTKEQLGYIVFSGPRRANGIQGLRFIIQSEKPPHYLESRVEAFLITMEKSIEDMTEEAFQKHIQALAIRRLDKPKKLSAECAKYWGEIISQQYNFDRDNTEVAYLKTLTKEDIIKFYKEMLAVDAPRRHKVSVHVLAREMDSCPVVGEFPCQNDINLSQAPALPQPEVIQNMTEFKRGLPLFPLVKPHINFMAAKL
The experiment in a line: Dose Response: Fluorescence polarization-based cell-based high throughput dose response assay for inhibitors of insulin-degrading enzyme (IDE). [Related pubchem assays: 434962 (Primary screen (IDE inhibitors in singlicate)), 449730 (Counterscreen (Cytotoxicity in triplicate)), 435028 (Confirmation (IDE inhibitors in triplicate)), 434984 (Summary …. The format is functional.

The nature of assay [2]: Counterscreen for IDE inhibitors: Luminescence-based cell-based high throughput dose response assay to identify compounds that are cytotoxic to HEK cells. [Related pubchem assays: 434962 (Primary screen (IDE inhibitors in singlicate)), 449730 (Counterscreen (Cytotoxicity in triplicate)), 435028 (Confirmation (IDE inhibitors in triplicate)) …. Particulars: HEK293. The format is functional.

In assay [3] the target is Protein-tyrosine kinase 2-beta (Homo sapiens, UniProt Q14289).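 Note: potency of inhibitors of PYK2 kinase phosphorylation of poly-GT substrate.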
Chain of Protein-tyrosine kinase 2-beta (Q14289 whole entry): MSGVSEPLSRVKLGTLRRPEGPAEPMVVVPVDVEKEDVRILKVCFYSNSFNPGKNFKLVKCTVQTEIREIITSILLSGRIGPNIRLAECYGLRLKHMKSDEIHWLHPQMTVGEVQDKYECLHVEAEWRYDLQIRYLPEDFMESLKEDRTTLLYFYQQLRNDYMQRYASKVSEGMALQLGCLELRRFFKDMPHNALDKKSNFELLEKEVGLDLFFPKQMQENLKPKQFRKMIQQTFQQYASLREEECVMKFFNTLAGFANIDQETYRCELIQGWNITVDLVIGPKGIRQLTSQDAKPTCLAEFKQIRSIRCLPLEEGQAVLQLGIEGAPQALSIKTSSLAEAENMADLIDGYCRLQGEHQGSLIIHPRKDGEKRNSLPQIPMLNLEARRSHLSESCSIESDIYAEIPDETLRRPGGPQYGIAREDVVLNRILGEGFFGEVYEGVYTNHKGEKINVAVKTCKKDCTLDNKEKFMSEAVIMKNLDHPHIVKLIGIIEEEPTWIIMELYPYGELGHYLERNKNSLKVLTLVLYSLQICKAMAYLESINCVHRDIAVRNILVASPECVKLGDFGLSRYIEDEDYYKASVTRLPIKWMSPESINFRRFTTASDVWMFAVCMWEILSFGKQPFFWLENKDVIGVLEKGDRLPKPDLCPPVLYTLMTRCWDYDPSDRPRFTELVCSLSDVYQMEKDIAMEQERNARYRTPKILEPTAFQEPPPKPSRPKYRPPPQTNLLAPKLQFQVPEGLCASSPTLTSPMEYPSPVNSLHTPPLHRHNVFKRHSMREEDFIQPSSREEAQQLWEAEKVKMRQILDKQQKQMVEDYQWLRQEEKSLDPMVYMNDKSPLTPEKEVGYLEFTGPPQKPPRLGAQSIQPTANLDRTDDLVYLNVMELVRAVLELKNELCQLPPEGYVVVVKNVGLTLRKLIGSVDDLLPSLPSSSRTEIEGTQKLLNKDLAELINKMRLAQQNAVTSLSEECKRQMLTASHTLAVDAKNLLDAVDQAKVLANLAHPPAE
The target in assay [4] is T2, Lysosomal acid glucosylceramidase (Homo sapiens, UniProt P04062).
T2 sequence (P04062 whole entry): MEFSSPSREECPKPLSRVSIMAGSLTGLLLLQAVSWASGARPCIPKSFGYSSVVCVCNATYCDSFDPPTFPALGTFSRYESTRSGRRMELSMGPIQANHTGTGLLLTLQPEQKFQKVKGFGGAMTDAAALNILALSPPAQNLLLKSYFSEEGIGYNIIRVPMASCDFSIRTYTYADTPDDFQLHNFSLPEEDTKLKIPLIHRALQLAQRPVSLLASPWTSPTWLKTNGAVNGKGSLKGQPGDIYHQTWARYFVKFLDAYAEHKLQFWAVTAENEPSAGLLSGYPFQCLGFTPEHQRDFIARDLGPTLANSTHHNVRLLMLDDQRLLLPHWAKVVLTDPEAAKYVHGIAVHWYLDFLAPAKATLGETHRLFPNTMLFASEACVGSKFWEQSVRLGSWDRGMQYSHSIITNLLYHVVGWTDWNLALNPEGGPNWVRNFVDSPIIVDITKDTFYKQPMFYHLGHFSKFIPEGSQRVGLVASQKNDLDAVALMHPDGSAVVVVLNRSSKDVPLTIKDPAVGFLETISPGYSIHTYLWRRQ
The experiment in a line: Dose response cell-based high throughput screening assay to identify enhancers of beta-glucosidase activity. [Related pubchem assays: 784 ]. The format is functional.

In another assay the target is Melanocortin receptor 4 (Homo sapiens, UniProt P32245). The format is functional, cell-based.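 Note: Cell-based assay with luminescence read-out, confirmatory dose-response testing for agonist activity of biased ligands at MC4R; human U2OS cells with tagged receptor and beta-arrestin; potency of agonists that increase receptor coupling to beta-arrestin.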
Assay [5] can be described thus: M. tuberculosis H37Rv growth inhibitors, H37Rv strain (AID 1626). The format is functional.
Assay [6] in a line: luciferase reporter signal suppression in cells – H4 neuroglioma cells, luminescence, dose response (AID 1990). The format is functional, cell-based. (In general: Reporter assays use an easily measured gene product as a stand-in for the process of interest.)
The next assay deals with Estrogen receptor beta (Homo sapiens, UniProt Q92731).
A short description of assay [7]: Luminescence Cell-Based Dose Response HTS to Identify Inhibitors of 5'UTR Stem-Loop Driven Prion Protein mRNA Translation in H4 Neuroglioblastoma Cells. [Related pubchem assays: 1827 (Project Summary), 1813 (Primary HTS)]. The format is functional.
Assay [8] is described as follows: alpha-synuclein stem-loop luciferase translation blockers – H4 neuroglioma cells, luminescence, confirmation (AID 1988). The format is functional, cell-based.
Assay [9] is described as follows: viability loss of HPDE-C7K cells – cell-based, fluorescence, HTS, primary screen (AID 431). The format is functional. Conditions: Homo sapiens.
A short description of assay [10]: NIH3T3 cell viability loss – ATP luminescence, mouse fibroblasts, counter-screen, dose response (AID 2010).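 Note: cells exposed to compound for about 90 hours before reading.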 The format is functional, cell-based. In general terms: A counterscreen serves to expose hits that act by an unwanted route or on another target.
The nature of assay [11]: HPDE-C7 pancreatic duct cell viability loss – fluorescence, HTS (AID 430). The format is functional, cell-based. Particulars: Homo sapiens.
A short description of assay [12]: Trypanosoma cruzi growth suppression in host cells – NIH3T3 host cells, beta-gal luminescence, confirmation (AID 2044).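 Note: intracellular parasites grown in NIH/3T3 mouse fibroblasts as host cells; luminescent beta-galactosidase reporter signal from transgenic T. cruzi replicating inside host cells; inhibitors lower the luminescence signal.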 The format is functional, cell-based.
A short description of assay [13]: cells. The format is functional, cell-based.
The nature of assay [14]: cells. The format is functional, cell-based. This is another data set of the same source.
The next assay has as its target T3, Streptokinase A (Streptococcus pyogenes serotype M1, UniProt P10520).
T3 sequence (P10520 whole entry): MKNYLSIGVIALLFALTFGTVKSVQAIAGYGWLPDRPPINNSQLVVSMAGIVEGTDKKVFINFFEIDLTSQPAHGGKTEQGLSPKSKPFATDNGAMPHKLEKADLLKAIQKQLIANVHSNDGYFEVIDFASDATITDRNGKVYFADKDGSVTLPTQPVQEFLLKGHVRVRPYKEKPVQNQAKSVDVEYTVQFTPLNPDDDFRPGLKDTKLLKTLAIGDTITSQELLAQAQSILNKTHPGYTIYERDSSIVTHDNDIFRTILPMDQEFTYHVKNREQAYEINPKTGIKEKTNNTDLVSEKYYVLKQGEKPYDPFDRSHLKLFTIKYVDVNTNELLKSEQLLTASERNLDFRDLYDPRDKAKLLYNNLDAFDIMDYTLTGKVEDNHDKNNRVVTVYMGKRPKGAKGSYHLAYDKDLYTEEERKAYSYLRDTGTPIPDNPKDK
The experiment in a line: viability-normalized secreted streptokinase activity reduction – plasminogen activation absorbance, OD405, dose response (AID 1914).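 Note: secreted streptokinase activity via plasminogen activation per viability signal from cell pellet.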 The format is functional, Streptococcus pyogenes M1 GAS.

Assay [15] relates to Streptococcus sp. 'group A'. The experiment in a line: Streptococcus pyogenes SK(-)GAS viability under kanamycin – luminescence, BacTiterGlo, confirmation, counter-screen for streptokinase expression inhibitor project, dose response (AID 1900). The format is functional, organism-based.
In the next assay the test system is Streptococcus. The experiment in a line: GAS UMAA2166 growth inhibition – luminescence, BacTiterGlo, counter-screen for streptokinase expression inhibitor project, dose response (AID 1915).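 Note: potency for reduction of bacterial viability or growth.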 The format is functional, organism-based.
Assay [16] concerns the target Peroxisome proliferator-activated receptor gamma/Nuclear receptor coactivator 3 (Homo sapiens, UniProt P37231). The format is functional.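 Note: agonist potency for raising coactivator recruitment to the receptor.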
The target of assay [17] is Peroxisome proliferator-activated receptor gamma/Nuclear receptor coactivator 1 (Homo sapiens, UniProt P37231). The format is functional.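 Note: agonist potency as compounds enhance coactivator SRC-1 recruitment to PPARgamma.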
Chain of Peroxisome proliferator-activated receptor gamma/Nuclear receptor coactivator 1 (P37231 whole entry): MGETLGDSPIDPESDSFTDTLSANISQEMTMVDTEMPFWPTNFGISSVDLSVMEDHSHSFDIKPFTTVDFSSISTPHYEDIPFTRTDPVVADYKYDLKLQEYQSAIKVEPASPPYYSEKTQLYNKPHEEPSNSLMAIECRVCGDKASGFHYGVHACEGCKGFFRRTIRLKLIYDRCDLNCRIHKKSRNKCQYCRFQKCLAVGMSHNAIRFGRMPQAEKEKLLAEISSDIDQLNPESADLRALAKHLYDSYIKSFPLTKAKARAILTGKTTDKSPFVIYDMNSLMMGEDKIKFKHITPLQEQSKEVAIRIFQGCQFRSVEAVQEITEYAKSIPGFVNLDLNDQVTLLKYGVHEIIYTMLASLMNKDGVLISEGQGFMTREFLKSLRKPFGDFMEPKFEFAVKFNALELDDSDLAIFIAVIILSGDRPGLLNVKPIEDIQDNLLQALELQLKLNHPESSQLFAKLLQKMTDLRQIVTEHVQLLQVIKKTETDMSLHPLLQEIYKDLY
Chain of Peroxisome proliferator-activated receptor gamma/Nuclear receptor coactivator 1 (Q15788 whole entry, further chain): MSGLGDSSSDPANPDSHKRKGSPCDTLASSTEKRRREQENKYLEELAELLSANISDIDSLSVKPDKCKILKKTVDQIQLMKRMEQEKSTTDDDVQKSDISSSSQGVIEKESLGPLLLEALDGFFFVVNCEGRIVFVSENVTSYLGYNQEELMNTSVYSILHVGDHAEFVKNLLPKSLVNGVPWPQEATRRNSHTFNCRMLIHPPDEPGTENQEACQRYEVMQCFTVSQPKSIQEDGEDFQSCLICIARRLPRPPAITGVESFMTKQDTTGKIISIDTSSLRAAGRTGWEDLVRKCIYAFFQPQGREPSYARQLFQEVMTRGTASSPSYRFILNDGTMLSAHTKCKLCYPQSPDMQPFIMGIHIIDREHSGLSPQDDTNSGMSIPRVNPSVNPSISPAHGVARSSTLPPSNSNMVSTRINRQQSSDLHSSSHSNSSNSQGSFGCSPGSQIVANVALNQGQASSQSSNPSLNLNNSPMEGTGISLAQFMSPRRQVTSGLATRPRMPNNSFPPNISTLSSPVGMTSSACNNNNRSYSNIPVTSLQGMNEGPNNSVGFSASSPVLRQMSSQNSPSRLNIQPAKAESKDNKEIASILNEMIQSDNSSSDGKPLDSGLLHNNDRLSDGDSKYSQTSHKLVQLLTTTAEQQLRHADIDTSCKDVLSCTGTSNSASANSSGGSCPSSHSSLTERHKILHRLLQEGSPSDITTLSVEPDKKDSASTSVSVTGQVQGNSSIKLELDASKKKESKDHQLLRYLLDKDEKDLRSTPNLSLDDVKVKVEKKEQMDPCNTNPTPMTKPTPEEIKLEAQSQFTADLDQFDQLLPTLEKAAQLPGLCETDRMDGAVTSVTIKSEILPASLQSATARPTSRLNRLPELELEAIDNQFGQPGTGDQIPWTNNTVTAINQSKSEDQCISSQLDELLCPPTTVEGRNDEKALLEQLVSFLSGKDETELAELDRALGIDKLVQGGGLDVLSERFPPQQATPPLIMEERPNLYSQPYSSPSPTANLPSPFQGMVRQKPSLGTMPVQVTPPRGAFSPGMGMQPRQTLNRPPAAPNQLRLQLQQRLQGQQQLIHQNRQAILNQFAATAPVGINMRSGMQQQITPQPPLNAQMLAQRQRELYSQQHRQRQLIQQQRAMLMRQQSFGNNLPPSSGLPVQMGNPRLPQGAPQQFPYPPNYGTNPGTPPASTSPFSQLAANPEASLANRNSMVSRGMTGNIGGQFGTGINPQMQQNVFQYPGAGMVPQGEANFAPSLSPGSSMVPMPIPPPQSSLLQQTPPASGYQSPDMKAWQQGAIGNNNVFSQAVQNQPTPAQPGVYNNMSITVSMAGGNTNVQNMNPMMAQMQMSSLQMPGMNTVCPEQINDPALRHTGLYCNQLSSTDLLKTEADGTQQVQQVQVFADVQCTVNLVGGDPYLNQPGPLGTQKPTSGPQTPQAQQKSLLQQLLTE
In assay [18] the target is Peroxisome proliferator-activated receptor gamma/Nuclear receptor coactivator 2 (Homo sapiens, UniProt P37231). The format is functional.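 Note: agonist potency for raising coactivator recruitment to the receptor.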
Chain of Peroxisome proliferator-activated receptor gamma/Nuclear receptor coactivator 2 (P37231 whole entry): as the sequence (P37231 whole entry) above
Chain of Peroxisome proliferator-activated receptor gamma/Nuclear receptor coactivator 2 (Q15596 whole entry, further chain): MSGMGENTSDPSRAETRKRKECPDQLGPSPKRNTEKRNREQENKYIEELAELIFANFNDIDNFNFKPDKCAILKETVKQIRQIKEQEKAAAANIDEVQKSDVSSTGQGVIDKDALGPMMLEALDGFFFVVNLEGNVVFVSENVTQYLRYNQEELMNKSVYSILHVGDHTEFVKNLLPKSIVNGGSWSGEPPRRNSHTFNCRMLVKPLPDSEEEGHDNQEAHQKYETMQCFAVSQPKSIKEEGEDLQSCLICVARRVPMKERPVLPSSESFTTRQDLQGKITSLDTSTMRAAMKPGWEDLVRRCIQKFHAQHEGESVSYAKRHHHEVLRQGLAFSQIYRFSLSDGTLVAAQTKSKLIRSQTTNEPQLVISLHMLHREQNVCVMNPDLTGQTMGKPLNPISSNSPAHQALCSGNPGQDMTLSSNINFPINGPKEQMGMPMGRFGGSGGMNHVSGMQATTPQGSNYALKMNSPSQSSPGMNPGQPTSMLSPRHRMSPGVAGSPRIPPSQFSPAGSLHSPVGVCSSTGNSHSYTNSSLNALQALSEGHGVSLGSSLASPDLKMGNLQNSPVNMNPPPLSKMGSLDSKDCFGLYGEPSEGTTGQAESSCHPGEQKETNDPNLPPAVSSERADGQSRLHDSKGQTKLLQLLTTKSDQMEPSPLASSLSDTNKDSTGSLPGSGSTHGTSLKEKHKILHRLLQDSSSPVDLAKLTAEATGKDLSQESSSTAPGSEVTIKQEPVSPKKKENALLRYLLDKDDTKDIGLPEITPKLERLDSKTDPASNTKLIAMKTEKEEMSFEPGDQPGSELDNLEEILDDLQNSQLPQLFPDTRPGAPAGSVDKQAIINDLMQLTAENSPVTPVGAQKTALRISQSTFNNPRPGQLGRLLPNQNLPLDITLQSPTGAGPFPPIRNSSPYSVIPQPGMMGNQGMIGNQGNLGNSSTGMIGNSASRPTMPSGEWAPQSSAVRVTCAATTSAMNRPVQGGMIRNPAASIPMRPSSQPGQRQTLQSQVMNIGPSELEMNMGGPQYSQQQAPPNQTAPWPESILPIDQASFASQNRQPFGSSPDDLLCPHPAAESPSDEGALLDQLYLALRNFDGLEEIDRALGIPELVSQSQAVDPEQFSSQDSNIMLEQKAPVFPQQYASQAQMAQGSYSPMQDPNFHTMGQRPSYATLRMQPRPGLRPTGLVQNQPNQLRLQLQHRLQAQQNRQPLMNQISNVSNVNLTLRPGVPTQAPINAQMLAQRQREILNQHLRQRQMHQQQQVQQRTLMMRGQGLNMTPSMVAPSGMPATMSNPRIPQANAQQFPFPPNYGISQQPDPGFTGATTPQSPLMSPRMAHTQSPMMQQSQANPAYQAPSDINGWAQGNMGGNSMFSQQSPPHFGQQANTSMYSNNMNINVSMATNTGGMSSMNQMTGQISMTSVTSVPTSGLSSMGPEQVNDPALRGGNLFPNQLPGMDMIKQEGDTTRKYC
For assay [19], the target named is Heat shock protein HSP 90-alpha (Homo sapiens, UniProt P07900). The format is functional, organism-based.
For a further assay, the target named is Cytochrome P450 2C19 (Homo sapiens, UniProt P33261). The experiment in a line: Cytochrome panel assay with activity outcomes. Panel member name: p450-cyp2c19 Compounds with AC50 equal or less than 10 uM are considered active. The format is functional. Particulars: read-out: AC50.
A further assay has as its target Cytochrome P450 2C9 (Homo sapiens, UniProt P11712).

Molecules are shown by their SMILES. The source made the active and inactive calls.

For the compound `O=C(/C=C/c1ccc([N+](=O)[O-])cc1)c1cccs1`, the 50% cytotoxic concentration (CC50) in assay [1] was 20.9 µM (active).
As for `Cc1cc(C)cc(Nc2cnn(C34CC5CC(CC(CC(=O)O)(C5)C3)C4)c(=O)c2Cl)c1`, the IC50 is 21.5 µM (not active) against Insulin-degrading enzyme and 0.0039 µM (active) in assay [2].
As for `COc1ccc(-c2cc3ccccc3oc2=O)cc1NC(=O)c1ccc(Br)o1`, the IC50 in assay [3] is 1.57 µM (active).
`CCN1C(=O)/C(=C/C=C2/CCCN2C)OC1=S`: the IC50 was 30.7 µM (not active) on Insulin-degrading enzyme and > 55.7 µM (not active) in [2].
As for `Cc1nonc1NC(=O)CSc1nc2cc(Cl)ccc2c2c1CCCC2`, the concentration giving a half-maximal response (EC50) in [4] was > 10 µM (not active).
Consider `O=C(COc1ccc2c(c1)OCO2)Nc1ccc2c(c1)oc1ccccc12`, for which the EC50 on Melanocortin receptor 4 is > 89.2 µM (inactive). In assay [5], the IC50 was > 100 µM (active).
With `Cc1nn(C)c(C)c1CN(C)C(=O)c1cnn2c1NC(c1ccccc1)CC2C(F)(F)F` (centres undefined), the EC50 in [6] was > 120 µM (not active); in assay [7], 17.9 µM (active); in assay [8], 20 µM (active). Besides, at Estrogen receptor beta, the IC50 was > 50 µM (not active).
On to `c1ccc(N2CCN(c3nc(NCc4ccco4)c4ccccc4n3)CC2)cc1`, for which the concentration giving a half-maximal response (EC50) in assay [9] was 10.8 µM (active); in [10] it was > 60 µM (not active); in assay [11], 11 µM (active); in assay [12], 2.3 µM (active).
Consider `CCCCCCN1C=CC=C/C1=C/C=C(C#N)C#N`, for which the results for the concentration for half-maximal inhibition (IC50) (on Insulin-degrading enzyme; in assay [2]) were > 6.22 µM (active) and 45.9 µM (not active), respectively. The EC50 in the assay “cells [13]” and in the assay “cells [14]” was > 350 µM (not active) in each case.
In the case of `CC(C)(C)C1CCC2(CC1)C(C#N)=C(SCC(=O)Nc1ccccc1)NC(=O)C2C#N` (centres undefined), the EC50 was 11.5 µM (active) at Streptokinase A; 4.96 µM (active) in [15]; 4.26 µM (active) in assay [9]; 5.05 µM (active) in assay [11]; 25.2 µM (active) in the assay with Streptococcus.
As to `Cc1cccnc1NC(=O)c1c(O)c2cccc3c2n(c1=O)CCC3`, the CC50 in assay [1] was > 40 µM (active).
For `COc1ccc(NC(=O)CN2CCN(S(=O)(=O)c3ccc(C(C)C)cc3)CC2)cc1OC`, in assay [4], the EC50 is given as > 10 µM (not active).
In the case of `CCCCSc1nnc([C@H](C)NC(=O)OC(C)(C)C)o1`, the concentration giving a half-maximal response (EC50) in assay [16], in assay [17] and in [18] was > 79.4 µM (not active) throughout.
With `CCc1c(C#N)c(N)nc(SCC(=O)OCc2ccccc2)c1C#N`, in assay [5], the IC50 was > 100 µM (active).
With `CCCOC(=O)c1ccc(Oc2c[nH]nc2-c2ccc(OC)cc2O)cc1`, the EC50 in assay [15] is 8.73 µM (active); in [9] it was 6.14 µM (active); in assay [11], 8.49 µM (active); in the assay with Streptococcus, 10.3 µM (active). Moreover, the AC50 in [19] was 7.97 µM (active).
In the case of `O=C(Nc1ccccc1-c1ccccc1)C12CC3CC(CC(C3)C1)C2`, the CC50 in assay [1] was > 40 µM (active).
With `CCc1ccc2nc(SCC(=O)N(CC)CC)c(C#N)cc2c1`, the IC50 in assay [3] was > 69.5 µM (not active).
On to `NNc1nc2c(-c3ccc(F)cc3)nnn2c2ccccc12`, for which the EC50 in [16], in [17] and in [18] was > 79.4 µM (not active) in each case.
Turning to `O=C(c1cc(COc2ccc(F)cc2Cl)on1)N1CCC(OCc2cccnc2)CC1`, the IC50 in assay [5] was > 100 µM (active).
For `CCn1c(SCC(=O)O)nnc1C1CCCCC1`, the EC50 in [16], in assay [17] and in assay [18] was > 79.4 µM (not active) throughout.
Consider `Cn1c(/C(C#N)=C(\O)c2ccc(S(=O)(=O)N3CCCCC3)cc2)nc2ccccc21`, for which the AC50 was 10 µM (inconclusive) on Cytochrome P450 2C19 and 0.316 µM (inconclusive) on Cytochrome P450 2C9. For the same compound, in assay [4], the EC50 is > 50 µM (not active).

(Values after ChEMBL document CHEMBL1201862, “PubChem BioAssay data set” (2004).)
